Source: ChEMBL document CHEMBL5532651, “HDAC specificity and kinase off-targeting by purine-benzohydroxamate anti-hematological tumor agents” (Eur J Med Chem, 2024)
Active and inactive are the calls of the source. No cut-off for these calls is given here.

What was measured:
Jurkat [1] = assay: Cytotoxicity against human Jurkat cells assessed as cell growth inhibition at 0.05 to 1.2 uM by MTT assay; type: functional, cell-based; conditions: dose 0.05-1.2 µM, time lower 24.0 hrs, time upper […], TDE = time-dependent effect
NAMALVA [2] = assay: Cytotoxicity against human NAMALVA cells assessed as cell growth inhibition at 0.1 to 9.9 uM by MTT assay; type: functional, cell-based; conditions: dose 0.1-9.9 µM, time lower 24.0 hrs, time upper […], TDE = time-dependent effect
Jurkat [3] = assay: Induction of apoptosis in human Jurkat cells at IC50 measured after 48 hrs by flow cytometry; type: functional, cell-based
Jurkat [4] = assay: Cytotoxicity against human Jurkat cells assessed as cell growth inhibition at 0.02 to 1.3 uM by MTT assay; type: functional, cell-based; conditions: dose 0.02-1.3 µM, time lower 24.0 hrs, time upper […], TDE = time-dependent effect
NAMALVA [5] = assay: Cytotoxicity against human NAMALVA cells assessed as cell growth inhibition at 0.1 to 10.5 uM by MTT assay; type: functional, cell-based; conditions: dose 0.1-10.5 µM, time lower 24.0 hrs, time upper […], TDE = time-dependent effect
U-937 = assay: Cytotoxicity against human U-937 cells assessed as cell growth inhibition at 1.6 to 3.6 uM by MTT assay; type: functional, cell-based; conditions: dose 1.6-3.6 µM, time lower 24.0 hrs, time upper […], TDE = time-dependent effect
[6] = biological target: T1, Tyrosine-protein kinase JAK2 (Homo sapiens, UniProt O60674); assay: Inhibition of JAK2 (unknown origin) preincubated for 30 mins followed by ATP addition measured after 30 mins by HTRF assay
[7] = biological target: Tyrosine-protein kinase JAK3 (Homo sapiens, UniProt P52333); assay: Inhibition of recombinant human JAK3 (781 to 1124 residues) in presence of ATP by ELISA
[8] = biological target: Tyrosine-protein kinase BTK (Homo sapiens) (UniProt Q06187); assay: Inhibition of BTK (unknown origin) at 100 uM preincubated for 20 mins followed by 33P-ATP addition measured after 2 hrs by HotSpot kinase assay relative to control; conditions: time 140.0 min
[9] = biological target: Cyclin-dependent kinase 4 (Homo sapiens) (UniProt P11802); assay: Inhibition of CDK4 (unknown origin) at 100 uM preincubated for 20 mins followed by 33P-ATP addition measured after 2 hrs by HotSpot kinase assay relative to control; conditions: time 140.0 min
[10] = biological target: Cyclin-dependent kinase 6 (Homo sapiens) (UniProt Q00534); assay: Inhibition of CDK6 (unknown origin) at 100 uM preincubated for 20 mins followed by 33P-ATP addition measured after 2 hrs by HotSpot kinase assay relative to control; conditions: time 140.0 min
[11] = biological target: T1, Tyrosine-protein kinase JAK2; assay: Inhibition of JAK2 (unknown origin) at 100 uM preincubated for 20 mins followed by 33P-ATP addition measured after 2 hrs by HotSpot kinase assay relative to control; conditions: time 140.0 min
[12] = biological target: Tyrosine-protein kinase JAK3 (Homo sapiens) (UniProt P52333); assay: Inhibition of JAK3 (unknown origin) at 100 uM preincubated for 20 mins followed by 33P-ATP addition measured after 2 hrs by HotSpot kinase assay relative to control; conditions: time 140.0 min
[13] = biological target: Tyrosine-protein kinase SYK (Homo sapiens) (UniProt P43405); assay: Inhibition of SYK (unknown origin) at 100 uM preincubated for 20 mins followed by 33P-ATP addition measured after 2 hrs by HotSpot kinase assay relative to control; conditions: time 140.0 min
[14] = biological target: Phosphatidylinositol 4,5-bisphosphate 3-kinase catalytic subunit alpha isoform (Homo sapiens) (UniProt P42336); assay: Inhibition of PI3Ka (unknown origin) at 100 uM preincubated for 20 mins followed by 33P-ATP addition measured after 2 hrs by HotSpot kinase assay relative to control; conditions: time 140.0 min
[15] = biological target: Phosphatidylinositol 4,5-bisphosphate 3-kinase catalytic subunit beta isoform (Homo sapiens) (UniProt P42338); assay: Inhibition of PI3Kb (unknown origin) at 100 uM preincubated for 20 mins followed by 33P-ATP addition measured after 2 hrs by HotSpot kinase assay relative to control; conditions: time 140.0 min
[16] = biological target: Phosphatidylinositol 4,5-bisphosphate 3-kinase catalytic subunit gamma isoform (Homo sapiens) (UniProt P48736); assay: Inhibition of PI3Kg (unknown origin) at 100 uM preincubated for 20 mins followed by 33P-ATP addition measured after 2 hrs by HotSpot kinase assay relative to control; conditions: time 140.0 min
[17] = biological target: Phosphatidylinositol 4,5-bisphosphate 3-kinase catalytic subunit delta isoform (Homo sapiens) (UniProt O00329); assay: Inhibition of PI3Kd (unknown origin) at 100 uM preincubated for 20 mins followed by 33P-ATP addition measured after 2 hrs by HotSpot kinase assay relative to control; conditions: time 140.0 min
Phosphatidylinositol 4,5-bisphosphate 3-kinase catalytic subunit delta isoform (Homo sapiens), sequence (O00329 whole entry, canonical isoform): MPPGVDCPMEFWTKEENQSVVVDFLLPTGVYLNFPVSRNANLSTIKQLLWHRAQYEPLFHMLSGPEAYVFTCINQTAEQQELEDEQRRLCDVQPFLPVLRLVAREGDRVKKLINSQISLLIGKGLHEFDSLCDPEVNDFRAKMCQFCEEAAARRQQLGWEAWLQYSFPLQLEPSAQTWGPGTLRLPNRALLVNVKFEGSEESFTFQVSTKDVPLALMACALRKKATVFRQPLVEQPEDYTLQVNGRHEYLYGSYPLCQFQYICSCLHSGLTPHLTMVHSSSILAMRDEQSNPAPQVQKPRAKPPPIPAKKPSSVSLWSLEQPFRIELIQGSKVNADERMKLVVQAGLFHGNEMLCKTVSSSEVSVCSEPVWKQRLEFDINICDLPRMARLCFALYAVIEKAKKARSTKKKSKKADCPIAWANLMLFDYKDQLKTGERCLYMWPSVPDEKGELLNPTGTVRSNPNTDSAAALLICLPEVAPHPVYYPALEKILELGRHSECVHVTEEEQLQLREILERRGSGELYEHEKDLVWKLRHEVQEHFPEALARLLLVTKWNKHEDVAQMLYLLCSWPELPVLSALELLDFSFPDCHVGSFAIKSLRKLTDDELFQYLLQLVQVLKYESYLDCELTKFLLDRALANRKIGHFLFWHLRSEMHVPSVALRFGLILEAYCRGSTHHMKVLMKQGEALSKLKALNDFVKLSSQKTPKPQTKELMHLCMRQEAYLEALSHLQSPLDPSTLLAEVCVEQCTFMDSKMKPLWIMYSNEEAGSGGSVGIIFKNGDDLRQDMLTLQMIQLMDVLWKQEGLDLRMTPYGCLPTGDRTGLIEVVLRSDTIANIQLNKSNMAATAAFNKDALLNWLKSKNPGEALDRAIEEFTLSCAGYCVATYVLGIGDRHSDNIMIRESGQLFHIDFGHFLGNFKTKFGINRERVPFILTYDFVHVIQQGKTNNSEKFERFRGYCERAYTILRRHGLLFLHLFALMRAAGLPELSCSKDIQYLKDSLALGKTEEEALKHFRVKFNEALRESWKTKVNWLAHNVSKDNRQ

T1 sequence (O60674 whole entry, the tested form may be a part): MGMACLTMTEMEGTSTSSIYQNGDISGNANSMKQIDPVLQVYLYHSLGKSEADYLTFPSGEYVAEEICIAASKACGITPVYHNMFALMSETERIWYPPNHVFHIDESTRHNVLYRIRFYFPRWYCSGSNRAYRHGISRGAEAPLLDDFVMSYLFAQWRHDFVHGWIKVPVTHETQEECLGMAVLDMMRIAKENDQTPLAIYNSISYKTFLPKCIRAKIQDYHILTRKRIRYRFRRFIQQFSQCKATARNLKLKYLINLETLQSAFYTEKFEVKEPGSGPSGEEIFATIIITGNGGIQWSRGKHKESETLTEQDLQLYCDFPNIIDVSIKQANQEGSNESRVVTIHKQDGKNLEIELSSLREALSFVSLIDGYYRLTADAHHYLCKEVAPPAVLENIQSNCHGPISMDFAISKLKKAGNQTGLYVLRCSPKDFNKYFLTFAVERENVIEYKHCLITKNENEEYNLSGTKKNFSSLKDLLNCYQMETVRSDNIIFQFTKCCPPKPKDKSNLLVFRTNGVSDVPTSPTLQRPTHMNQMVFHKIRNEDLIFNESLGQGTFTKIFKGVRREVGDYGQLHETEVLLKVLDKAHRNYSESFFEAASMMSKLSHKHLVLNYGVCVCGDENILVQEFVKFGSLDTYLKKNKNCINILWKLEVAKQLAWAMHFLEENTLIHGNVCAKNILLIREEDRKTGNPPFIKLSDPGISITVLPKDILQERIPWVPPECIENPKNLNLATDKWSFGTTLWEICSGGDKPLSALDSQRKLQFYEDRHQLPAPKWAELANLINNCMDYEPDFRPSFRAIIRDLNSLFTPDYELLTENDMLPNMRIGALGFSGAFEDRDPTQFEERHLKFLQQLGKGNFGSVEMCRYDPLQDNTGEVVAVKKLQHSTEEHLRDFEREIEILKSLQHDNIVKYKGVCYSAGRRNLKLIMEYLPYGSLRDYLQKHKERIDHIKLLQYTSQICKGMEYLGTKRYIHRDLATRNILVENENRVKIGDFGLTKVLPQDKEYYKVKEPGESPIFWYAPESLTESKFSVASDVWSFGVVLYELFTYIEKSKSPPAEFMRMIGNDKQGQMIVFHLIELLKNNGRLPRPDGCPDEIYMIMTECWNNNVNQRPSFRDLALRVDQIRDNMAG
Phosphatidylinositol 4,5-bisphosphate 3-kinase catalytic subunit gamma isoform (Homo sapiens), sequence (P48736 whole entry, looked up, canonical isoform): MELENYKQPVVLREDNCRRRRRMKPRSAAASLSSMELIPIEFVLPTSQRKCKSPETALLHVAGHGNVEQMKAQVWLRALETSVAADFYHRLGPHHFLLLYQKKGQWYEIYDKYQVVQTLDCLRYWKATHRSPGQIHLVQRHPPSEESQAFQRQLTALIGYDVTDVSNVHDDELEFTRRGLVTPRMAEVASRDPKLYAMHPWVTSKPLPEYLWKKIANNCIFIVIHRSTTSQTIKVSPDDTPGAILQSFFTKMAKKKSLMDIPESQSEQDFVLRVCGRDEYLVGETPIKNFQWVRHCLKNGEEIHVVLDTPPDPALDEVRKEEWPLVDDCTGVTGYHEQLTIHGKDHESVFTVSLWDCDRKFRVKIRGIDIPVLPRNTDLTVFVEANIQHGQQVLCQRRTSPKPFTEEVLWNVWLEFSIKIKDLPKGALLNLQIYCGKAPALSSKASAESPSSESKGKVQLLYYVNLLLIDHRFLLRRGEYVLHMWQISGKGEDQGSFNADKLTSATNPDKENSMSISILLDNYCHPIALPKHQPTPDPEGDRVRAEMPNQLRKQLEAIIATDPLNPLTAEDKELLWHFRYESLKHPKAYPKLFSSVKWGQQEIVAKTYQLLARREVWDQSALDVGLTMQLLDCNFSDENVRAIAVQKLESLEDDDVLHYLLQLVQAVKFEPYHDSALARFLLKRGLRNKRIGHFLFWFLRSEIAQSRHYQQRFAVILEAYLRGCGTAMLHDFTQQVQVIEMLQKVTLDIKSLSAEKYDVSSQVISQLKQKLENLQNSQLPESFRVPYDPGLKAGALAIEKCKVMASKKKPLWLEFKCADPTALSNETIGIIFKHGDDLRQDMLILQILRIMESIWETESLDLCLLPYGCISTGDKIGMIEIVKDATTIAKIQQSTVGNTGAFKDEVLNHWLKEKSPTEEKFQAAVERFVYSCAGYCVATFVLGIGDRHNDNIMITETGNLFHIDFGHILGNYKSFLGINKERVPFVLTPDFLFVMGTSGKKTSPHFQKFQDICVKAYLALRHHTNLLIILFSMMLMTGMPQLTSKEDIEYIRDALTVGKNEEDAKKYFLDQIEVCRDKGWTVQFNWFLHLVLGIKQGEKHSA
Tyrosine-protein kinase JAK3 (Homo sapiens), sequence (P52333 whole entry): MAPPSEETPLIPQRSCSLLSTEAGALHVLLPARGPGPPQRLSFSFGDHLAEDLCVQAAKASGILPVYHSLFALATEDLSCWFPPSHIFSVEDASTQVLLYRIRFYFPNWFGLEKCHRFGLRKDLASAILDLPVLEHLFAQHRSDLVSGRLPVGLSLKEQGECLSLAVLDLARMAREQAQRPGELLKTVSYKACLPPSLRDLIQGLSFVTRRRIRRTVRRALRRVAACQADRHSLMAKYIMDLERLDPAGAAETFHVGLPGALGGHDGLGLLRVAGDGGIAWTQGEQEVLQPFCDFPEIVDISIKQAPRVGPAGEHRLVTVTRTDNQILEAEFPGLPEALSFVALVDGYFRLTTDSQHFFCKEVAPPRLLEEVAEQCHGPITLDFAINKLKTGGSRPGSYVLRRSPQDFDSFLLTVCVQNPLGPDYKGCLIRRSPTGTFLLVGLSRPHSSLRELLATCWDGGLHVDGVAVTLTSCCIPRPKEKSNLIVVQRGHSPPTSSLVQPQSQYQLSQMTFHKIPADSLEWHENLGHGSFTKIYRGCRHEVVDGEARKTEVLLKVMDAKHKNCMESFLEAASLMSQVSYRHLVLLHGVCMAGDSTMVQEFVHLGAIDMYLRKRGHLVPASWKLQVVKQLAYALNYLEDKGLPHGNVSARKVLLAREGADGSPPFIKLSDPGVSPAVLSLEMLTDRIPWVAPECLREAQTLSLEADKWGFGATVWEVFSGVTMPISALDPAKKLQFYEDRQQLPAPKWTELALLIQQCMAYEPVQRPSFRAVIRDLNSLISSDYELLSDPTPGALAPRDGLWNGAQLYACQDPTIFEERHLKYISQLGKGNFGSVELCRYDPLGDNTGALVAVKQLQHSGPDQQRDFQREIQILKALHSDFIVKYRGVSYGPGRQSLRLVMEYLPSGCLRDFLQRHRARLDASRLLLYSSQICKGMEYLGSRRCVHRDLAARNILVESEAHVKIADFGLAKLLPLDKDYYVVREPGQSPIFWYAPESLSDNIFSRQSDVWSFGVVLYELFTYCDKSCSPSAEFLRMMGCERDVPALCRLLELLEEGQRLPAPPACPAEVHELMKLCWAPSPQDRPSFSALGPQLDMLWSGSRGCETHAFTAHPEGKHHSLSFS
Tyrosine-protein kinase JAK3, sequence (P52333 whole entry, the tested form may be a part): as the sequence (P52333 whole entry) above
Cyclin-dependent kinase 6 (Homo sapiens), sequence (Q00534 whole entry): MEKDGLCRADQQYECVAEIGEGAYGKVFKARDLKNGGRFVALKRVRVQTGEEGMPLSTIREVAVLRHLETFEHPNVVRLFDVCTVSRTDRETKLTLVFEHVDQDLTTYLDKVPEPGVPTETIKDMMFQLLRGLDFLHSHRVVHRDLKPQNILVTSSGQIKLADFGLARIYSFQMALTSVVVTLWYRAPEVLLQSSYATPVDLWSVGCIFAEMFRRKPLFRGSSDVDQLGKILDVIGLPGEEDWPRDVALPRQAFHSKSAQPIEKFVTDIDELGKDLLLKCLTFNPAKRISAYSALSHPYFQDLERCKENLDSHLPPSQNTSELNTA
Cyclin-dependent kinase 4 (Homo sapiens), sequence (P11802 whole entry): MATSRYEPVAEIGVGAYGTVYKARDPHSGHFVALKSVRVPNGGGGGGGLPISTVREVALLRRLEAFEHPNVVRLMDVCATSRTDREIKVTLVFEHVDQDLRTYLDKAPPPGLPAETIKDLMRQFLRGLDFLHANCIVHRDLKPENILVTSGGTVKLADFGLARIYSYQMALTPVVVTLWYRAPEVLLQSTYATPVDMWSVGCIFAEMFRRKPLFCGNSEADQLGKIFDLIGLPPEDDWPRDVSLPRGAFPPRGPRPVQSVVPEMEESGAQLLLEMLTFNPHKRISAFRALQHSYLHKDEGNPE

SMILES | inhibition (Jurkat [1]) | inhibition (NAMALVA [2]) | Activity (Jurkat [3]) | inhibition (Jurkat [4]) | inhibition (NAMALVA [5]) | inhibition (U-937) | IC50 [6] [µM] | IC50 [7] [µM] | inhibition [8] [%] | inhibition [9] [%] | inhibition [10] [%] | inhibition [11] [%] | inhibition [12] [%] | inhibition [13] [%] | inhibition [14] [%] | inhibition [15] [%] | inhibition [16] [%] | inhibition [17] [%]
COc1ccc(Nc2ncnc3c2ncn3Cc2ccc(C(=O)NO)cc2)cc1 | Tde | Tde | Active | – | – | – | – | – | – | – | – | – | – | – | – | – | – | –
O=C(NO)c1ccc(Cn2cnc3c(Nc4ccc(F)c(Cl)c4)ncnc32)cc1 | – | – | – | Tde | Tde | Tde | 34.6 | 2.59 | 99.2 | 73.2 | 38.6 | 99.5 | 94.5 | 71.2 | 29.8 | 62 | 44.2 | 51.2
